# Experiments:
# rat CYP17 = target: T1, rat CYP17 (Rattus norvegicus, UniProt P11715); assay: CYP17 inhibition assay in rat testicular microsomes; format: biochemical; conditions: 3H3-17α-hydroxypregnenolone substrate, 60 minutes at 37° C.
# T1 construct: Rat testis tissue was collected and disrupted with 30 strokes of a glass homogenizer; from tissue; host or cells: rat testis (microsomal fraction)
# T1 sequence (P11715 1-507): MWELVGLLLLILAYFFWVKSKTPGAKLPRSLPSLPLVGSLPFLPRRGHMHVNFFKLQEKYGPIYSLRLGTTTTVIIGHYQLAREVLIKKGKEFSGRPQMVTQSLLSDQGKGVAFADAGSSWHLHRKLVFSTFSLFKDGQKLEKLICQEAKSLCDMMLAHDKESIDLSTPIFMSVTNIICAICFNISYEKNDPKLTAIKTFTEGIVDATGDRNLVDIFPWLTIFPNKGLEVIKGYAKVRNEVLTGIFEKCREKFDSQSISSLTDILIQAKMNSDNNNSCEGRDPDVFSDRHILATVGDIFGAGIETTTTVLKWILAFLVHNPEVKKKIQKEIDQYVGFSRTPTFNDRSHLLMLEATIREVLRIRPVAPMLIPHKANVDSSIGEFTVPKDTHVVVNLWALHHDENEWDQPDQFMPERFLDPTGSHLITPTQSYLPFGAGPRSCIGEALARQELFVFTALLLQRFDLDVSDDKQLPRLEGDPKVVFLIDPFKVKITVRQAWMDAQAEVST
# Description: (§1) CYP17 Inhibition Assay in Rat Testicular Microsomes (Rat CYP17) or Yeast Microsome Overexpressing Human CYP17
# (§2) A. Materials • 1. NADPH (Sigma): A working stock was prepared by adding 25 μL of 6.5 mM NADPH in each tube. The final concentration of NADPH used in the assay was 325 μM. • 2. Potassium Phosphate Buffer: One molar (1M) solutions of K2HPO4 and KH2PO4 were prepared. Eight mL of the 1 M KH2PO4 and 1.98 mL of the 1 M K2HPO4 were combined and the pH was adjusted to 7.4. • 3. ^3H3-17α-hydroxypregnenolone (American Radiolabeled Chemicals, Inc., stock 1 μCi/μL): A 1:1 dilution of ^3H3-17α-hydroxypregnenolone in ethanol was prepared by combining 100 μL ^3H3-17α-hydroxypregnenolone+100 μL ethanol for one complete 96 well plate. For the reaction, 2 μL of the diluted ^3H3-17α-hydroxypregnenolone was added in each tube, i.e., 1 μCi/reaction. • 4. Microsome Isolation Buffer: The microsome isolation buffer was prepared by combining 250 mM Sucrose, 5 mM EDTA, 10 mM Tris HCl, 4 mM DTT, and adjusting to pH 7.4. • 5. TEG Buffer: The TEG buffer was prepared by combining 50 mM Tris HCl, 1 mM EDTA, and 20% Glycerol. • 6. Rat Testicular Microsomes: Rat testis tissue was collected and disrupted with 30 strokes of a glass homogenizer on ice with 250 μL of microsome isolation buffer, followed by centrifugation at 10,000 g for 10 minutes at 4° C. The supernatant was collected and centrifuged at 100,000 g for 45 minutes at 4° C. The pellet was dissolved in TEG Buffer and the protein was quantified. The homogenized microsome samples were then frozen at −80° C. • 7. Yeast Microsomes which overexpress the human CYP17 enzyme were obtained from Premas Biotech, India.
# (§3) Potassium phosphate buffer (470 μL) was prepared as described above and was added to each well of a deep well plate. The test compound was diluted using a TECAN liquid handler and 5 μL of diluted compound was transferred to each well (96 deep well/1 mL). A solution (25 μL) of 6.5 mM NADPH was added (final concentration of 325 µM in the assay). ^3H3-17α-hydroxypregnenolone (2 μL of the working stock) was added to each tube. The plates were then pre-incubated for 15 minutes at 37° C. Following the pre-incubation, either 5 μL rat testicular microsomes (150-160 μg) or 5 μL of yeast microsomes expressing human CYP17 (1.7 pmol), was added. Incubation was at 37° C. for 60 minutes in the presence of oxygen. The plates were then placed in ice and chloroform (500 μL) was added, mixed well and incubated at 4° C. for 20 minutes. The plates were then centrifuged at 1000 rpm for 15 minutes at 4° C.
# (§4) A portion (300 μL) of the aqueous solution was collected and mixed with a 5% aqueous suspension of activated charcoal (300 μL). The plates were then incubated at 4° C. for 30 minutes, after which the plates were centrifuged at 1000 rpm for 15 minutes at 4° C. From this, 125 μL of the aqueous solution was collected and plated into a 96 well plate. Microscint™ 40 [125 μL, Perkin-Elmer; containing a mixture of a polymer based on alkylphenolethoxylate (20-40%), diethanolamine-phosphoric acid ester ammonium salt (10-20%), sodium dioctyl sulphosuccinate (2.5-10%), triethyl phosphate (2.5-10%), 3,6-dimethyl-4-octyne-3,6-diol (≦2.5%), a polymer based on nonylphenolethoxylate (≦2.5%), diisopropyl naphthalene isomers (40-60%), 2,5-diphenyloxazole (≦2.5%), and 9,10-dimethylanthracene] was added and mixed well. After 30 minutes of incubation, the samples were analyzed with a MicroBeta® Trilux microplate liquid scintillation counter and luminometer (Perkin-Elmer).
# human CYP17 = target: T2, human CYP17 (Homo sapiens, UniProt P05093); assay: CYP17 inhibition assay in yeast microsomes overexpressing human CYP17; format: biochemical; conditions: yeast microsomes expressing human CYP17, 3H3-17α-hydroxypregnenolone substrate, 60 minutes at 37° C.
# T2 sequence (P05093 1-508): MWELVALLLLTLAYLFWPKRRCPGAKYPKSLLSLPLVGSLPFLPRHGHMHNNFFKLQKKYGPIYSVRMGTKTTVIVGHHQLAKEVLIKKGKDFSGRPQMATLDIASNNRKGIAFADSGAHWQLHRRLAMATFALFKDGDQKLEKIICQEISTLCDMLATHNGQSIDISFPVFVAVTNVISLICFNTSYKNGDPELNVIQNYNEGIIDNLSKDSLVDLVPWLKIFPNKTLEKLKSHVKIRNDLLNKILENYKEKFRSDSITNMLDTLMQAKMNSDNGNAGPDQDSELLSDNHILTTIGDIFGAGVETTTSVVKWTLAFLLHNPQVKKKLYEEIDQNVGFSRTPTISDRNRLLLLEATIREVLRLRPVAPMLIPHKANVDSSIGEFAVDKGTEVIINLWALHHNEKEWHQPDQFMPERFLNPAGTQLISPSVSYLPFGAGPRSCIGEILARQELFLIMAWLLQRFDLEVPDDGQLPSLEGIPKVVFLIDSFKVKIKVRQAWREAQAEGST
# Description: as §1, §2, §3, §4
Structure (SMILES),IC50 (rat CYP17),IC50 (human CYP17)
"CCC(c1ccc(-c2ccccc2O)cn1)n1ccnc1 (stereo not drawn) [Example 37, 2-[6-(1-Imidazol-1-yl-propyl)-pyridin-3-yl]-phenol]",< 50 nM,50 to 200 nM
"CC(c1cnc(-c2ccc(F)cc2F)s1)n1ccnc1 (stereo not drawn) [Example 28, 2-(2,4-Difluoro-phenyl)-5-(1-imidazol-1-yl-ethyl)-thiazole]",< 50 nM,50 to 200 nM
"CCC(c1ccc(-c2ccc(OC)cc2)cn1)n1ccnc1 (stereo not drawn) [Example 47, 2-(1-Imidazol-1-yl-propyl)-5-(4-methoxy-phenyl)-pyridine]",< 50 nM,201 to 10000 nM
"CCC(c1ccc(-c2cccc(OC)c2)cn1)n1ccnc1 (stereo not drawn) [Example 7, 2-(1-(1H-imidazol-1-yl)propyl)-5-(3-methoxyphenyl)pyridine]",< 50 nM,< 50 nM
"CCC(c1cnc(-c2ccc(O)cc2)s1)n1ccnc1 (stereo not drawn) [Example 60, 4-[5-(1-Imidazol-1-yl-propyl)-thiazol-2-yl]-phenol]",50 to 200 nM,201 to 10000 nM
"CCC(c1ccc(-c2ccc(O)cc2)o1)n1ccnc1 (stereo not drawn) [Example 30, 4-[5-(1-Imidazol-1-yl-propyl)-furan-2-yl]-phenol]",< 50 nM,< 50 nM
"CC(c1ccc(-c2ccc(O)cc2)s1)n1ccnc1 (stereo not drawn) [Example 49, 4-[5-(1-Imidazol-1-yl-ethyl)-thiophen-2-yl]-phenol]",< 50 nM,50 to 200 nM
"CCC(c1ccc(-c2ccc(OC)cc2)o1)n1ccnc1 (stereo not drawn) [Example 27, 1-{1-[5-(4-Methoxy-phenyl)-furan-2-y]-propyl}-1H-imidazole]",< 50 nM,< 50 nM
"CCC(c1cnc(-c2ccc(OC)cc2)s1)n1ccnc1 (stereo not drawn) [Example 35, 5-(1-Imidazol-1-yl-propyl)-2-(4-methoxy-phenyl)-thiazole]",< 50 nM,201 to 10000 nM
"CCC(c1cccc(-c2ccc(OC)cc2)n1)n1ccnc1 (stereo not drawn) [Example 38, 2-(1-Imidazol-1-yl-propyl)-6-(4-methoxy-phenyl) pyridine]",< 50 nM,201 to 10000 nM
"CC(c1ccc(-c2ccc(=O)n(C)c2)s1)n1ccnc1 (stereo not drawn) [Example 20, 5-(5-(1-(1H-imidazol-1-yl)ethyl)thiophen-2-yl)-1-methylpyridin-2(1H)-one]",< 50 nM,201 to 10000 nM
"COc1ccc(-c2ccc(C(C)(C)n3ccnc3)s2)cc1 [Example 24, 1-(2-(5-(4-methoxyphenyl)-thiophen-2-yl)-propan-2-yl)-1H-imidazole]",< 50 nM,50 to 200 nM
"CCC(c1ccc(-c2cccc(O)c2)cn1)n1ccnc1 (stereo not drawn) [Example 8, 3-(6-(1-(1H-imidazol-1-yl)propyl)pyridin-3-yl)phenol]",< 50 nM,< 50 nM
"CCC(c1ccc(-c2ccc(CO)cc2)cn1)n1ccnc1 (stereo not drawn) [Example 41, {4-[6-(1-Imidazol-1-yl-propyl)-pyridin-3-yl]-phenyl}-methanol]",< 50 nM,
"CCC(c1cnc(-c2ccc(NC(=O)OC(C)(C)C)cc2)s1)n1ccnc1 (stereo not drawn) [Example 31, {4-[5-(1-Imidazol-1-yl-propyl)-thiazol-2-yl]-phenyl}-carbamic acid tert-butyl ester]",< 50 nM,
"CCC(c1ccc(-c2ccc(O)cc2)cn1)n1ccnc1 (stereo not drawn) [Example 50, 4-[6-(1-Imidazol-1-yl-propyl)-pyridin-3-yl]-phenol]",< 50 nM,< 50 nM
"CC(c1ccc(-c2ccc(N)cc2)cn1)n1ccnc1 (stereo not drawn) [Example 14, 4-(6-(1-(1H-imidazol-1-yl)ethyl)pyridin-3-yl)aniline]",50 to 200 nM,
"CC(c1ccc(-c2ccccc2F)cn1)n1ccnc1 (stereo not drawn) [Example 40, 5-(2-Fluoro-phenyl)-2-(1-imidazol-1-yl-ethyl)-pyridine]",< 50 nM,
"CCC(c1ccc(-c2ccc(F)cc2)cn1)n1ccnc1 (stereo not drawn) [Example 29, 5-(4-Fluoro-phenyl)-2-(1-imidazol-1-yl-propyl)-pyridine]",< 50 nM,
"CCC(c1ccc(-c2ccc(C(=O)O)cc2)cn1)n1ccnc1 (stereo not drawn) [Example 6, 4-(6-(1-(1H-imidazol-1-yl)propyl)pyridin-3-yl)benzoic acid]",201 to 10000 nM,
"CCC(c1cnc(-c2ccc(=O)[nH]c2)s1)n1ccnc1 (stereo not drawn) [Example 59, 5-[5-(1-Imidazol-1-yl-propyl)-thiazol-2-yl]-1H-pyridin-2-one]",50 to 200 nM,
"CCC(c1ccc(-c2ccccc2OC)cn1)n1ccnc1 (stereo not drawn) [Example 56, 2-(1-Imidazol-1-yl-propyl)-5-(2-methoxy-phenyl)-pyridine]",< 50 nM,201 to 10000 nM
"CCC(c1cnc(-c2cccc(F)c2)s1)n1ccnc1 (stereo not drawn) [Example 1, 5-(1-(1H-imidazol-1-yl)propyl)-2-(3-fluorophenyl)thiazole]",< 50 nM,
"CCC(c1ccc(-c2ccc(O)cc2)s1)n1ccnc1 (stereo not drawn) [Example 4, 4-(5-(1-(1H-imidazol-1-yl)propyl)thiophen-2-yl)phenol]",< 50 nM,
"CCC(c1ccc(-c2ccccc2F)cn1)n1ccnc1 (stereo not drawn) [Example 48, 5-(2-Fluoro-phenyl)-2-(1-imidazol-1-yl-propyl)-pyridine]",< 50 nM,
"CCC(c1cnc(-c2ccc(OC)nc2)s1)n1ccnc1 (stereo not drawn) [Example 51, 5-[5-(1-Imidazol-1-yl-propyl)-thiazol-2-yl]-2-methoxy-pyridine]",< 50 nM,
"CC(c1ccc(-c2ccc(O)cc2)cn1)n1ccnc1 (stereo not drawn) [Example 16, 4-(6-(1-(1H-imidazol-1-yl)ethyl)pyridin-3-yl)phenol]",< 50 nM,
"COc1ccc(-c2cccnc2C(C)n2ccnc2)cc1 (stereo not drawn) [Example 66, 2-(1-(1H-imidazol-1-yl)ethyl)-3-(4-methoxyphenyl)-pyridine]",50 to 200 nM,
"CC(c1cnc(-c2ccc(C(=O)O)cc2)s1)n1ccnc1 (stereo not drawn) [Example 65, 4-[5-(1-Imidazol-1-yl-ethyl)-thiazol-2-yl]-benzoic acid]",201 to 10000 nM,
"CC(c1ccc(-c2ccoc2)cn1)n1ccnc1 (stereo not drawn) [Example 13, 2-(1-(1H-imidazol-1-yl)ethyl)-5-(furan-3-yl)pyridine]",< 50 nM,
